# Measurements as given in patent publication US10710978B2, “STK4 inhibitors for treatment of hematologic malignancies” (Dana-Farber Cancer Institute, Inc., priority 2015, dated 2020).
# Read-outs that look alike come from different tables or passages of the source.
# Assays:
# STK24 (MST3) = STK24 (MST3) (Homo sapiens (Human), UniProt Q9Y6E0); assay: Z-lyte biochemical IC50 assay (Invitrogen); settings: ATP concentration matched the Km
# How it was run: (§1)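 FRET-based Z-lyte kinase assays run at Invitrogen, ATP at each kinase's Km; for STK4, 6.25-160 ng enzyme with 2 μM Ser/Thr 07 peptide in HEPES pH 7.5, MgCl2, EGTA, Brij-35, 1 h reaction then development reagent. 10-point 3-fold titration from 10 μM.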
# STK4 (MST1) = STK4 (MST1) (Homo sapiens (Human), UniProt Q13043); assay: Z-lyte biochemical IC50 assay (Invitrogen); settings: ATP concentration matched the Km
# How it was run: as §1
# ATR = ATR (Homo sapiens (Human), UniProt Q13535); assay: KiNativ assay; assay type: binding; settings: H929 live cell
# Description: (§2) Biochemical IC50s of the compounds of the present disclosure against various kinases were measured in a KiNativ assay. Compounds were screened in duplicate at 10 μM in H929 live cell. IC50 was measured via Mass spectroscopy (MS).
# AurA = AurA (Homo sapiens (Human), UniProt O14965); assay: KiNativ assay; assay type: binding; settings: H929 live cell
# Description: as §2
# BARK1 = BARK1 (Homo sapiens (Human), UniProt P25098); assay: KiNativ assay; assay type: binding; settings: H929 live cell
# Description: as §2
# CDK2 = CDK2 (Homo sapiens (Human), UniProt P24941); assay: KiNativ assay; assay type: binding; settings: H929 live cell
# Description: as §2
# CHK2 = CHK2 (Homo sapiens (Human), UniProt O96017); assay: KiNativ assay; assay type: binding; settings: H929 live cell
# Description: as §2
# CLK2 = CLK2 (Homo sapiens (Human), UniProt P49760); assay: KiNativ assay; assay type: binding; settings: H929 live cell
# Description: as §2
# CaMK2d = CaMK2d (Homo sapiens (Human), UniProt Q13557); assay: KiNativ assay; assay type: binding; settings: H929 live cell
# Description: as §2
# FYN, SRC, YES = assay: KiNativ assay; assay type: binding; settings: H929 live cell; for % inhibition: 10 μM, range class
# Description: as §2
# GCN2 domain2 = GCN2 domain2 (Homo sapiens (Human), UniProt Q9P2K8); assay: KiNativ assay; assay type: binding; settings: H929 live cell
# Description: as §2
# GSK3A = GSK3A (Homo sapiens (Human), UniProt P49840); assay: KiNativ assay; assay type: binding; settings: H929 live cell
# Description: as §2
# MAP2K4 = MAP2K4 (Homo sapiens (Human), UniProt P45985); assay: KiNativ assay; assay type: binding; settings: H929 live cell
# Description: as §2
# MAP3K1 = MAP3K1 (Homo sapiens (Human), UniProt Q13233); assay: KiNativ assay; assay type: binding; settings: H929 live cell
# Description: as §2
# MAP3K2, MAP3K3 = assay: KiNativ assay; assay type: binding; settings: H929 live cell; for % inhibition: 10 μM, range class
# Description: as §2
# MARK2, MARK3 = assay: KiNativ assay; assay type: binding; settings: H929 live cell; for % inhibition: 10 μM, range class
# Description: as §2
# MARK3 = MARK3 (Homo sapiens (Human), UniProt P27448); assay: KiNativ assay; assay type: binding; settings: H929 live cell
# Description: as §2
# MLK3 = MLK3 (Homo sapiens (Human), UniProt Q16584); assay: KiNativ assay; assay type: binding; settings: H929 live cell
# Description: as §2
# MSK1 domain1 = MSK1 domain1 (Homo sapiens (Human), UniProt O75582); assay: KiNativ assay; assay type: binding; settings: H929 live cell
# Description: as §2
# NDR2 = NDR2 (Homo sapiens (Human), UniProt Q9Y2H1); assay: KiNativ assay; assay type: binding; settings: H929 live cell
# Description: as §2
# NEK1 = NEK1 (Homo sapiens (Human), UniProt Q96PY6); assay: KiNativ assay; assay type: binding; settings: H929 live cell
# Description: as §2
# NEK7 = NEK7 (Homo sapiens (Human), UniProt Q8TDX7); assay: KiNativ assay; assay type: binding; settings: H929 live cell
# Description: as §2
# NEK8 = NEK8 (Homo sapiens (Human), UniProt Q86SG6); assay: KiNativ assay; assay type: binding; settings: H929 live cell
# Description: as §2
# PIK3CB = PIK3CB (Homo sapiens (Human), UniProt P42338); assay: KiNativ assay; assay type: binding; settings: H929 live cell
# Description: as §2
# PIP4K2C = PIP4K2C (Homo sapiens (Human), UniProt Q8TBX8); assay: KiNativ assay; assay type: binding; settings: H929 live cell
# Description: as §2
# SNRK = SNRK (Homo sapiens (Human), UniProt Q9NRH2); assay: KiNativ assay; assay type: binding; settings: H929 live cell
# Description: as §2
# SRPK1 = SRPK1 (Homo sapiens (Human), UniProt Q96SB4); assay: KiNativ assay; assay type: binding; settings: H929 live cell
# Description: as §2
# TLK2 = TLK2 (Homo sapiens (Human), UniProt Q86UE8); assay: KiNativ assay; assay type: binding; settings: H929 live cell
# Description: as §2
# p38d, p38g = assay: KiNativ assay; assay type: binding; settings: H929 live cell; for % inhibition: 10 μM, range class
# Description: as §2
# [1] = range class, read-out: % inhibition
# Sequence of NDR2 (Q9Y2H1 whole entry): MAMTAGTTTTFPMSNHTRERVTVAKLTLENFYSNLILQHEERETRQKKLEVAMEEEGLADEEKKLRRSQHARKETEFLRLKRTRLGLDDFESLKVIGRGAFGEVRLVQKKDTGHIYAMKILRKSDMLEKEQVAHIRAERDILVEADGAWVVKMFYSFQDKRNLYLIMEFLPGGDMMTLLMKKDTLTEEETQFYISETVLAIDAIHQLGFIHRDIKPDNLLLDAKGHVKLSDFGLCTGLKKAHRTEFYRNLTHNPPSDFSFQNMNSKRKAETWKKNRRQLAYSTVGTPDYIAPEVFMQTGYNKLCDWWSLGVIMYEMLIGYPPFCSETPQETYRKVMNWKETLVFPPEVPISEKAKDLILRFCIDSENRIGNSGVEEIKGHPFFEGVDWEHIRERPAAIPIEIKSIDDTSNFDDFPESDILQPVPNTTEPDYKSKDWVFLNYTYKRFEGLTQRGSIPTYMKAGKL
# Sequence of PIK3CB (P42338 whole entry): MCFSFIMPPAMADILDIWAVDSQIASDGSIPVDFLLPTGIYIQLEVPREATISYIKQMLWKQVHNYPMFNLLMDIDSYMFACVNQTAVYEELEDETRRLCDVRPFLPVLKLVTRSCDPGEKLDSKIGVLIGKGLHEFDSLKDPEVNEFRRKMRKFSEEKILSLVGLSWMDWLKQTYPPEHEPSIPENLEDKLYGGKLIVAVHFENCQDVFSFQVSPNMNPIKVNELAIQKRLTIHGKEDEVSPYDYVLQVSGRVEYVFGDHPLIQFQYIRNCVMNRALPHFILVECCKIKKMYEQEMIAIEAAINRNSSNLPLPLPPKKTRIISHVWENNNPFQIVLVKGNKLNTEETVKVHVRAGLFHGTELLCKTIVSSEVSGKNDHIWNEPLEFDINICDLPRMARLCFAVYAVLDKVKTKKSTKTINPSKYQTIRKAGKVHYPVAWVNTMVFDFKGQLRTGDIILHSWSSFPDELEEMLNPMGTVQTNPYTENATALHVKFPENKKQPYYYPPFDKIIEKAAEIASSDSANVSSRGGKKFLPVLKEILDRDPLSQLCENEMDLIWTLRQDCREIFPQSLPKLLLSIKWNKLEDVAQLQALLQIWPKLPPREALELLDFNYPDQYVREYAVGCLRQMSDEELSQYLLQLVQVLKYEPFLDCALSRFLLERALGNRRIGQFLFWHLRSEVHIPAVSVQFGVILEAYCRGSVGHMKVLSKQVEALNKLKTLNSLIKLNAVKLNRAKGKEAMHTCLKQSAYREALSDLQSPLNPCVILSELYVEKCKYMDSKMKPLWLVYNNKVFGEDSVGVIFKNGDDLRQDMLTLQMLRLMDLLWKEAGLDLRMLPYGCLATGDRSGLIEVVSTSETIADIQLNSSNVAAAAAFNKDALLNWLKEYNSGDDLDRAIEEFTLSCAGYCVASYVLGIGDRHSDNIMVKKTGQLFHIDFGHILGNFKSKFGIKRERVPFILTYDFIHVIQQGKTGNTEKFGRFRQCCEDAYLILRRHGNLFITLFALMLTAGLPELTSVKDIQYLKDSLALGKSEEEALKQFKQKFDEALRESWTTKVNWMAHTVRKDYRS
# Sequence of PIK3CB (P27986 whole entry partner): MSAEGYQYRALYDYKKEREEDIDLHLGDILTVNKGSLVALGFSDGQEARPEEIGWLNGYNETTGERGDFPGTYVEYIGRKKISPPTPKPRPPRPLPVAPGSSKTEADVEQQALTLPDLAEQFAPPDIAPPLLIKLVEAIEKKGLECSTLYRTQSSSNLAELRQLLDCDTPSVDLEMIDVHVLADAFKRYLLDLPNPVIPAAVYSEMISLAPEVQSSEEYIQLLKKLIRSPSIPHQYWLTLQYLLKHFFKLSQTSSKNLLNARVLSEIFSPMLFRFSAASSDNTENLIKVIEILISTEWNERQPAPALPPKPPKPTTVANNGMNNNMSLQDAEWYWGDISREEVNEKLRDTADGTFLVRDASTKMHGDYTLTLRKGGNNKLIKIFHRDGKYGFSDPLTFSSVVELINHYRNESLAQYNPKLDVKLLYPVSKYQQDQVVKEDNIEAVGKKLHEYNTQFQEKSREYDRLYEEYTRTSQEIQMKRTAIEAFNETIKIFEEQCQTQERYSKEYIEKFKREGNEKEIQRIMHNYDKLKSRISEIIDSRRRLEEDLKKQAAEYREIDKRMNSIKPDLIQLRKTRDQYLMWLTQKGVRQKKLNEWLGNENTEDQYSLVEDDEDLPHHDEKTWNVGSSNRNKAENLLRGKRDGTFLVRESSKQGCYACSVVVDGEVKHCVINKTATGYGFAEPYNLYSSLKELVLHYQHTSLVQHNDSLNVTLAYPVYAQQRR
# Sequence of CaMK2d (Q13557 whole entry): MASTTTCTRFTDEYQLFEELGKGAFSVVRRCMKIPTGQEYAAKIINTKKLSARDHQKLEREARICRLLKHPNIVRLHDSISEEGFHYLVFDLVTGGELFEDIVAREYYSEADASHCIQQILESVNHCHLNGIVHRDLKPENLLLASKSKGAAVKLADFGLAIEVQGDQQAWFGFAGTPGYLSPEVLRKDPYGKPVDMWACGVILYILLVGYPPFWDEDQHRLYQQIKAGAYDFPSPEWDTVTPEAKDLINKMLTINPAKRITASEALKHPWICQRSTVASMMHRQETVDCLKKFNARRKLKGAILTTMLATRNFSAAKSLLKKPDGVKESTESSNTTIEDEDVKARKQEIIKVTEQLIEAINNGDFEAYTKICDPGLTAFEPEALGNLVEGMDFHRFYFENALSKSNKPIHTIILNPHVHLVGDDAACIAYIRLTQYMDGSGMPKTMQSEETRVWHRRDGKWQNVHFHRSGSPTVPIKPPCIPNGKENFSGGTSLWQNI
# Sequence of CHK2 (O96017 whole entry): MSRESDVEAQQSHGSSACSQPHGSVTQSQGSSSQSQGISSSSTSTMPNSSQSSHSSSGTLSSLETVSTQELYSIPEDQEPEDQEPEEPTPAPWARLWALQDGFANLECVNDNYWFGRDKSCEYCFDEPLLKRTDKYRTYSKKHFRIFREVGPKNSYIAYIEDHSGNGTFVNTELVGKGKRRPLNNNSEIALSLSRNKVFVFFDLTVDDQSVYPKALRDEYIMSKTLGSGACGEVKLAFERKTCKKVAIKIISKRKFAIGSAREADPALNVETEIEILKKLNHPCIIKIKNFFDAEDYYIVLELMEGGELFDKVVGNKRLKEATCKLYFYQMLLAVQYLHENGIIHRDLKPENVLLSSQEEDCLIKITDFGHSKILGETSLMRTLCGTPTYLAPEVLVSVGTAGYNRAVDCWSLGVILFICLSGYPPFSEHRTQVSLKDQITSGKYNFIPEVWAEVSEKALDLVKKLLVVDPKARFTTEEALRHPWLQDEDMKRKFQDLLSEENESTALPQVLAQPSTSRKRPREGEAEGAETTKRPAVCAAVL
# Sequence of GSK3A (P49840 whole entry): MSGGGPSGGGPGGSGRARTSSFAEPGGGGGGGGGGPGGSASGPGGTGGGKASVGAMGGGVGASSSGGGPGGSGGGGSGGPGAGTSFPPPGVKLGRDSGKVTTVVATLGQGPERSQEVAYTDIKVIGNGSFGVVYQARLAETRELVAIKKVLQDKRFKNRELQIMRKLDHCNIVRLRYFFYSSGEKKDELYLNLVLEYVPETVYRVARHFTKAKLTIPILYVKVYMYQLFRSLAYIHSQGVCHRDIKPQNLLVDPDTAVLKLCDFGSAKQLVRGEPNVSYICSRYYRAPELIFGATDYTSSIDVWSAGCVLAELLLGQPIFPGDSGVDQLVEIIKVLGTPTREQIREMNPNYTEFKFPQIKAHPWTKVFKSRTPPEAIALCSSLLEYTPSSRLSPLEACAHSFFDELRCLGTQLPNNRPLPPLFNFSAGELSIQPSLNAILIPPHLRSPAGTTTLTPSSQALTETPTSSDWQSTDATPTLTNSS
# Sequence of MAP2K4 (P45985 whole entry): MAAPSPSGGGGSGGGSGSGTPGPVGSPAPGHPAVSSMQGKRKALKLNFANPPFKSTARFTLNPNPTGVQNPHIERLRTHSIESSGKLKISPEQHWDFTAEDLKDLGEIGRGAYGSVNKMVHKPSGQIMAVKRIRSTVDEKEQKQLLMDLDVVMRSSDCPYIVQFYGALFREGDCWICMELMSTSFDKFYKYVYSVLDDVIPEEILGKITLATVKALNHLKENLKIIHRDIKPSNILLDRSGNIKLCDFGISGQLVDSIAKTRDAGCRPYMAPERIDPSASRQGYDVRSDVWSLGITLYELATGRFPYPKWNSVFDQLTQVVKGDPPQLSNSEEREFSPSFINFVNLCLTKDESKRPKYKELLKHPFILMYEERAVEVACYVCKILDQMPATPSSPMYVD
# Sequence of MSK1 domain1 (O75582 whole entry, the tested form may be a part): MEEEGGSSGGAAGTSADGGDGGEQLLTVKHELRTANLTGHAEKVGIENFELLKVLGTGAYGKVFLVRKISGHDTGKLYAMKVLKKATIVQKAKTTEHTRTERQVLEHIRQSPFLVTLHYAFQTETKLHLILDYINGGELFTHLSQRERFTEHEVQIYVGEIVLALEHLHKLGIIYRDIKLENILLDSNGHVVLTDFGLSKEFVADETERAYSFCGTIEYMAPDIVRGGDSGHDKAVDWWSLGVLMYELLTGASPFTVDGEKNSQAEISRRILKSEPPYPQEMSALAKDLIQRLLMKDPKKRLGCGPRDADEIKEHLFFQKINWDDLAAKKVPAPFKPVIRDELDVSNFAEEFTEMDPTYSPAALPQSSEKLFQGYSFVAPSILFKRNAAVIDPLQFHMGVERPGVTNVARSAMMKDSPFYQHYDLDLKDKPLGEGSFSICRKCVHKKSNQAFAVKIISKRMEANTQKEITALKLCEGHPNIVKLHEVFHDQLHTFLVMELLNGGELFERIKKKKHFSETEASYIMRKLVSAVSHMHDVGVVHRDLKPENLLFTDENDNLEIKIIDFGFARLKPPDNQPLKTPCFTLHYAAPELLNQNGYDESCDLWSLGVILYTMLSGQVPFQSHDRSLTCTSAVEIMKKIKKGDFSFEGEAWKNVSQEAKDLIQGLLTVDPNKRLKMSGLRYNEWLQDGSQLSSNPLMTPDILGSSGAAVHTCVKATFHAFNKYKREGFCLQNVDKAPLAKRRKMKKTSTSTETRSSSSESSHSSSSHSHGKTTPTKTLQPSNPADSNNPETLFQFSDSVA
smiles,measurement,setting,value
"Nc1ncc(-c2ccc(NS(=O)(=O)C3CC3)cc2F)cc1-c1ccc2c(c1)CCNC2=O [Compound I-51, N-(4-(6-amino-5-(1-oxo-1,2,3,4-tetrahydroisoquinolin-6-yl)pyridin-3-yl)-3-fluorophenyl) cyclopropanesulfonamide]",IC50,STK24 (MST3),40 to 200 nM
same,IC50,STK4 (MST1),< 40 nM
same,inhibition at 10 µM,ATR; [1],0%
same,inhibition at 10 µM,ATR; read-out: inhibition (10 μM),15%
same,inhibition (10 μM),AurA,43.2%
same,inhibition at 10 µM,AurA; [1],35 to 40%
same,inhibition at 10 µM,AurA; read-out: inhibition (10 μM),46.7%
same,inhibition at 10 µM,BARK1; [1],0%
same,inhibition at 10 µM,BARK1; read-out: inhibition (10 μM),-5.1%
same,inhibition at 10 µM,CDK2; [1],35 to 40%
same,inhibition at 10 µM,CDK2; read-out: inhibition (10 μM),35%
same,inhibition at 10 µM,CHK2; [1],0%
same,inhibition at 10 µM,CHK2; read-out: inhibition (10 μM),14.1%
same,inhibition at 10 µM,CLK2; [1],50 to 75%
same,inhibition at 10 µM,CLK2; read-out:,65.3%
same,inhibition at 10 µM,CaMK2d; [1],0%
same,inhibition at 10 µM,CaMK2d; read-out: inhibition (10 μM),2.3%
same,% inhibition,"FYN, SRC, YES",0.0%
same,inhibition (10 μM),"FYN, SRC, YES",−36.4%
same,inhibition at 10 µM,GCN2 domain2; [1],0%
same,inhibition at 10 µM,GCN2 domain2; read-out: inhibition (10 μM),-5.1%
same,inhibition at 10 µM,GSK3A; [1],75 to 90%
same,inhibition at 10 µM,GSK3A; read-out: inhibition (10 μM),85.2%
same,inhibition at 10 µM,MAP2K4; [1],35 to 40%
same,inhibition at 10 µM,MAP2K4; read-out: inhibition (10 μM),44.2%
same,inhibition at 10 µM,MAP3K1; [1],> 90%
same,inhibition at 10 µM,MAP3K1; read-out: inhibition (10 μM),95.8%
same,% inhibition,"MAP3K2, MAP3K3",0.0%
same,inhibition (10 μM),"MAP3K2, MAP3K3",26.7%
same,% inhibition,"MARK2, MARK3",0.0%
same,inhibition (10 μM),"MARK2, MARK3",14.9%
same,inhibition at 10 µM,MARK3; [1],0%
same,inhibition at 10 µM,MARK3; read-out: inhibition (10 μM),4.8%
same,inhibition at 10 µM,MLK3; [1],35 to 40%
same,inhibition at 10 µM,MLK3; read-out: inhibition (10 μM),42.3%
same,inhibition at 10 µM,MSK1 domain1; [1],0%
same,inhibition at 10 µM,MSK1 domain1; read-out: inhibition (10 μM),11.4%
same,inhibition at 10 µM,NDR2; [1],0%
same,inhibition at 10 µM,NDR2; read-out: inhibition (10 μM),8.4%
same,inhibition at 10 µM,NEK1; [1],0%
same,inhibition at 10 µM,NEK1; read-out: inhibition (10 μM),30.2%
same,inhibition at 10 µM,NEK7; [1],0%
same,inhibition at 10 µM,NEK7; read-out: inhibition (10 μM),-50.3%
same,inhibition at 10 µM,NEK8; [1],0%
same,inhibition at 10 µM,NEK8; read-out: inhibition (10 μM),-8.1%
same,inhibition at 10 µM,PIK3CB; [1],0%
same,inhibition at 10 µM,PIK3CB; read-out: inhibition (10 μM),7.2%
same,inhibition at 10 µM,PIP4K2C; [1],75 to 90%
same,inhibition at 10 µM,PIP4K2C; read-out: inhibition (10 μM),85.4%
same,inhibition at 10 µM,SNRK; [1],0%
same,inhibition at 10 µM,SNRK; read-out: inhibition (10 μM),-26.2%
same,inhibition at 10 µM,SRPK1; [1],0%
same,inhibition at 10 µM,SRPK1; read-out: inhibition (10 μM),-11.5%
same,inhibition at 10 µM,TLK2; [1],0%
same,inhibition at 10 µM,TLK2; read-out: inhibition (10 μM),-20.1%
same,% inhibition,"p38d, p38g",0.0%
same,inhibition (10 μM),"p38d, p38g",2.3%
"Nc1ncc(-c2ccc(NS(=O)(=O)C3CC3)cc2OC2CCCCC2)cc1-c1ccc2c(c1)CCNC2=O [Compound I-65, N-(4-(6-amino-5-(1-oxo-1,2,3,4-tetrahydroisoquinolin-6-yl)pyridin-3-yl)-3-(cyclohexyloxy)phenyl) cyclopropanesulfonamide]",IC50,STK24 (MST3),> 900 nM
same,IC50,STK4 (MST1),< 40 nM
same,inhibition at 10 µM,ATR; [1],0%
same,inhibition at 10 µM,ATR; read-out: inhibition (10 μM),28.1%
same,inhibition (10 μM),AurA,40.2%
same,inhibition at 10 µM,AurA; [1],35 to 40%
same,inhibition at 10 µM,AurA; read-out: inhibition (10 μM),45.4%
same,inhibition at 10 µM,BARK1; [1],0%
same,inhibition at 10 µM,BARK1; read-out: inhibition (10 μM),3.9%
same,inhibition at 10 µM,CDK2; [1],0%
same,inhibition at 10 µM,CDK2; read-out: inhibition (10 μM),21.6%
same,inhibition at 10 µM,CHK2; [1],0%
same,inhibition at 10 µM,CHK2; read-out: inhibition (10 μM),11.2%
same,inhibition at 10 µM,CLK2; [1],50 to 75%
same,inhibition at 10 µM,CLK2; read-out:,69.4%
same,inhibition at 10 µM,CaMK2d; [1],0%
same,inhibition at 10 µM,CaMK2d; read-out: inhibition (10 μM),4.2%
same,% inhibition,"FYN, SRC, YES",0.0%
same,inhibition (10 μM),"FYN, SRC, YES",−8.4%
same,inhibition at 10 µM,GCN2 domain2; [1],35 to 40%
same,inhibition at 10 µM,GCN2 domain2; read-out: inhibition (10 μM),43.5%
same,inhibition at 10 µM,GSK3A; [1],75 to 90%
same,inhibition at 10 µM,GSK3A; read-out: inhibition (10 μM),86%
same,inhibition at 10 µM,MAP2K4; [1],0%
same,inhibition at 10 µM,MAP2K4; read-out: inhibition (10 μM),-15.3%
same,inhibition at 10 µM,MAP3K1; [1],35 to 40%
same,inhibition at 10 µM,MAP3K1; read-out: inhibition (10 μM),48.5%
same,% inhibition,"MAP3K2, MAP3K3",0.0%
same,inhibition (10 μM),"MAP3K2, MAP3K3",23.3%
same,% inhibition,"MARK2, MARK3",0.0%
same,inhibition (10 μM),"MARK2, MARK3",−17.2%
same,inhibition at 10 µM,MARK3; [1],0%
same,inhibition at 10 µM,MARK3; read-out: inhibition (10 μM),-22.7%
same,inhibition at 10 µM,MLK3; [1],75 to 90%
same,inhibition at 10 µM,MLK3; read-out: inhibition (10 μM),82.7%
same,inhibition at 10 µM,MSK1 domain1; [1],0%
same,inhibition at 10 µM,MSK1 domain1; read-out: inhibition (10 μM),-52.5%
same,inhibition at 10 µM,NDR2; [1],0%
same,inhibition at 10 µM,NDR2; read-out: inhibition (10 μM),-8.7%
same,inhibition at 10 µM,NEK1; [1],0%
same,inhibition at 10 µM,NEK1; read-out: inhibition (10 μM),9.3%
same,inhibition at 10 µM,NEK7; [1],0%
same,inhibition at 10 µM,NEK7; read-out: inhibition (10 μM),-80%
same,inhibition at 10 µM,NEK8; [1],0%
same,inhibition at 10 µM,NEK8; read-out: inhibition (10 μM),-1.7%
same,inhibition at 10 µM,PIK3CB; [1],0%
same,inhibition at 10 µM,PIK3CB; read-out: inhibition (10 μM),14.6%
same,inhibition at 10 µM,PIP4K2C; [1],> 90%
same,inhibition at 10 µM,PIP4K2C; read-out: inhibition (10 μM),90.2%
same,inhibition at 10 µM,SNRK; [1],0%
same,inhibition at 10 µM,SNRK; read-out: inhibition (10 μM),1.1%
same,inhibition at 10 µM,SRPK1; [1],0%
same,inhibition at 10 µM,SRPK1; read-out: inhibition (10 μM),-25.4%
same,inhibition at 10 µM,TLK2; [1],0%
same,inhibition at 10 µM,TLK2; read-out: inhibition (10 μM),-3.5%
same,% inhibition,"p38d, p38g",0.0%
same,inhibition (10 μM),"p38d, p38g",−8.5%
